This note sets out measurements from patent publication US20250195530A1, “POLQ INHIBITORS” (ASTRAZENECA AB, priority 2022, published 2025).

Like-named read-outs stand apart in the source and are kept apart here.

The assay deals with DLD-1 BRCA2−/− cells. The assay is described as follows: Homologous recombination synthetic lethal inhibition of proliferation, DLD-1 BRCA2-/- (Cell Titre Glo 3D). The class given is cell-based. Particulars: Homo sapiens. The procedure, abridged:
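DLD-1 BRCA2−/− and parental DLD-1 cells exposed to 10-point dose range (10 μM to 0.51 nM, 3-fold) in RPMI/10% FBS at 37 °C, with medium and compound replenished on day 6. Viability by Cell Titre Glo 3D luminescence at day 7 (DLD-1) or day 12 (BRCA2−/−); IC50 as concentration halving maximum signal.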

Where [1] appears, read: DLD-1, first proliferation column (c5), DLD-1 BRCA2-/-, read-out: POLQ PD Prolif Lumin (converted).
Setting [2] is: DLD-1, DLD-1 BRCA2 −/−, mean, read-out: POLQ PD Prolif Lumin BRCA2 −/− mean pIC50 (converted).
The mark [3] stands for this setting: DLD-1, DLD-1 BRCA2 −/− cells, mean, read-out: POLQ PD Prolif Lumin BRCA2 −/− mean pIC50 (converted).

Turning to `Cc1cc(OCCCN(C)C)ccc1-c1nc2c(OC3(C)CC3)ncnc2n1Cc1cc(Cl)ccn1` [Example T387, 3-(4-(9-((4-chloropyridin-2-yl)methyl)-6-(1-methylcyclopropoxy)-9H-purin-8-yl)-3-methylphenoxy)-N,N-dimethylpropan-1-amine], the IC50 (DLD-1, first proliferation column (c5), taken as DLD-1 BRCA2-/-, read-out: POLQ PD Prolif Lumin (converted)) was 158 nM.

`CC[C@@H](O)CNC(=O)COc1ccc(-c2nc3c(OC4(C)CC4)ncnc3n2Cc2cc(C)ccn2)c(Cl)c1` [Example T520, (R)-2-(3-chloro-4-(6-(1-methylcyclopropoxy)-9-((4-methylpyridin-2-yl)methyl)-9H-purin-8-yl)phenoxy)-N-(2-hydroxybutyl)acetamide]: the IC50 under setting [1] was 398 nM. `CC(CCOc1ccc(-c2nc3c(OC4(C)CC4)ncnc3n2Cc2ccc(C#N)cc2)c(Cl)c1)C(=O)O` (racemic) [Example U7, 4-(3-chloro-4-(9-(4-cyanobenzyl)-6-(1-methylcyclopropoxy)-9H-purin-8-yl)phenoxy)-2-methylbutanoic acid]: the IC50 under setting [2] is 2510 nM.

As for `Cc1ccnc(Cn2c(-c3ccc(C(=O)NCC(F)(F)F)cc3Cl)nc3c(OC4(C)CC4)ncnc32)c1` [Example T86, 3-chloro-4-(6-(1-methylcyclopropoxy)-9-((4-methylpyridin-2-yl)methyl)-9H-purin-8-yl)-N-(2,2,2-trifluoroethyl)benzamide], under setting [3], the IC50 is 501 nM.

On to `COc1ccnc(Cn2c(-c3ccc(CC(N)=O)cc3Cl)nc3c(OC4(C)CC4)ncnc32)c1` [Example T63, 2-(3-chloro-4-(9-((4-methoxypyridin-2-yl)methyl)-6-(1-methylcyclopropoxy)-9H-purin-8-yl)phenyl)acetamide], for which the IC50 under setting [3] was 1000 nM. With `CC(COc1ccc(-c2nc3c(OC4(C)CC4)ncnc3n2Cc2ccccc2C#N)c(Cl)c1)CC(=O)O` (racemic) [Example U25, 4-(3-chloro-4-(9-(2-cyanobenzyl)-6-(1-methylcyclopropoxy)-9H-purin-8-yl)phenoxy)-3-methylbutanoic acid], under setting [2], the IC50 was 398 nM. `Cc1ccccc1Cn1c(-c2ccc(CC(N)=O)cc2Cl)nc2c(OC3(C)CC3)ncnc21` [Example T101, 2-(3-chloro-4-(9-(2-methylbenzyl)-6-(1-methylcyclopropoxy)-9H-purin-8-yl)phenyl)acetamide]: under setting [3], the IC50 was 501 nM.

On to `Cc1ccnc(Cn2c(-c3ccc(N4CCC4=O)cc3Cl)nc3c(OC4(C)CC4)ncnc32)c1` [Example T95, 1-(3-chloro-4-(6-(1-methylcyclopropoxy)-9-((4-methylpyridin-2-yl)methyl)-9H-purin-8-yl)phenyl)azetidin-2-one], for which the IC50 under setting [3] was 200 nM. Take `Cc1ccnc(Cn2c(-c3ccc(C(=O)NC4CC(F)C4)cc3Cl)nc3c(OC4(C)CC4)ncnc32)c1` (stereo not drawn) [Example T280, 3-chloro-N-(3-fluorocyclobutyl)-4-(6-(1-methylcyclopropoxy)-9-((4-methylpyridin-2-yl)methyl)-9H-purin-8-yl)benzamide]: where the note is “DLD-1, DLD-1 BRCA2-/- proliferation, column head only partly shown, read-out: POLQ PD Prolif Lumin (converted)”, the IC50 is 794 nM. `CC1(Oc2ncnc3c2nc(-c2ccc(CCCC(=O)O)cc2Cl)n3Cc2cccc(Cl)c2)CC1` [Example T155, 4-(3-chloro-4-(9-(3-chlorobenzyl)-6-(1-methylcyclopropoxy)-9H-purin-8-yl)phenyl)butanoic acid]: under setting [1], the IC50 is 631 nM. Take `CC1(Oc2ncnc3c2nc(-c2ccc(CC(N)=O)cc2Cl)n3Cc2cc(C(F)(F)F)ccn2)CC1` [Example T36, 2-(3-chloro-4-(6-(1-methylcyclopropoxy)-9-((4-(trifluoromethyl)pyridin-2-yl)methyl)-9H-purin-8-yl)phenyl)acetamide]: the IC50 under setting [3] was 501 nM. With `Cc1ccnc(Cn2c(-c3ccc(OCC(=O)N4CCC[C@H]4C#N)cc3Cl)nc3c(OC4(C)CC4)ncnc32)c1` [Example T539, (S)-1-(2-(3-chloro-4-(6-(1-methylcyclopropoxy)-9-((4-methylpyridin-2-yl)methyl)-9H-purin-8-yl)phenoxy)acetyl)pyrrolidine-2-carbonitrile], under setting [1], the IC50 is 316 nM.
